# From patent US20210045385A1, “PYRIDAZINONE-SUBSTITUTED KETOXIMES AS HERBICIDES” (FMC Corporation, priority 2018, published 2021)
# Legend:
# Format in all cases: in vivo
# [1] = system: Italian ryegrass (Lolium mutiflorum); experiment: Test C preemergence, visual plant response rating; details: Test C, 0 is no effect, 100 is complete control
# Summary of the method: (§1)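 Visual injury on a 0 (no effect) to 100 (complete control) scale versus untreated controls, scored approximately 10 d after treatment under greenhouse conditions. Treatments used surfactant-containing non-phytotoxic solvent formulations, sprayed onto loam–sand soil preemergence or onto one- to two-leaf plants 2–10 cm tall postemergence.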
# [2] = system: barnyardgrass (Echinochloa crus-galli); experiment: Test C preemergence, visual plant response rating; details: Test C, 0 is no effect, 100 is complete control
# Summary of the method: as §1
# [3] = system: foxtail, giant (giant foxtail, Setaria faberi); experiment: Test C preemergence, visual plant response rating; details: Test C, 0 is no effect, 100 is complete control
# Summary of the method: as §1
# kochia (Bassia scoparia) [4] = experiment: Test C preemergence, visual plant response rating; details: Test C, 0 is no effect, 100 is complete control
# Summary of the method: as §1
# [5] = system: pigweed (Amaranthus retroflexus); experiment: Test C preemergence, visual plant response rating; details: Test C, 0 is no effect, 100 is complete control
# Summary of the method: as §1
# [6] = system: ragweed (common ragweed, Ambrosia artemisiifolia); experiment: Test C preemergence, visual plant response rating; details: Test C, 0 is no effect, 100 is complete control
# Summary of the method: as §1
# [7] = system: Italian ryegrass (Lolium mutiflorum); experiment: Test C postemergence, visual plant response rating
# Summary of the method: as §1
# [8] = system: barnyardgrass (Echinochloa crus-galli); experiment: Test C postemergence, visual plant response rating
# Summary of the method: as §1
# [9] = system: blackgrass (Alopecurus myosuroides); experiment: Test C postemergence, visual plant response rating
# Summary of the method: as §1
# corn (Zea mays) = experiment: Test C postemergence, visual plant response rating
# Summary of the method: as §1
# [10] = system: foxtail, giant (giant foxtail, Setaria faberi); experiment: Test C postemergence, visual plant response rating
# Summary of the method: as §1
# [11] = system: galium (catchweed bedstraw, Galium aparine); experiment: Test C postemergence, visual plant response rating
# Summary of the method: as §1
# kochia (Bassia scoparia) [12] = experiment: Test C postemergence, visual plant response rating
# Summary of the method: as §1
# [13] = system: pigweed (Amaranthus retroflexus); experiment: Test C postemergence, visual plant response rating
# Summary of the method: as §1
# [14] = system: ragweed (common ragweed, Ambrosia artemisiifolia); experiment: Test C postemergence, visual plant response rating
# Summary of the method: as §1
# [15] = system: wheat (Triticum aestivum); experiment: Test C postemergence, visual plant response rating
# Summary of the method: as §1
# [16] = system: barnyardgrass (Echinochloa crus-galli); experiment: Test D flooded paddy test, visual plant response rating; details: 250 g ai/ha, scale 0 to 100 (0 no effect, 100 complete control), 13 to 15 d
# Summary of the method: (§2)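 Rating is visual, on a 0 (no effect) to 100 (complete control) scale versus controls, taken 13 to 15 d after treatment in a greenhouse. Treatment went into paddy water kept 3 cm above the soil surface, with plants at the 2-leaf stage.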
# [17] = system: duck salad (Heteranthera limosa); experiment: as above; details: 250 g ai/ha, scale 0 to 100 (0 no effect, 100 complete control), 13 to 15 d
# Summary of the method: as §2
# rice (Oryza sativa) = experiment: as above; details: 250 g ai/ha, scale 0 to 100 (0 no effect, 100 complete control), 13 to 15 d
# Summary of the method: as §2
# [18] = system: sedge umbrella (small-flower umbrella sedge, Cyperus difformis); experiment: as above; details: 250 g ai/ha, scale 0 to 100 (0 no effect, 100 complete control), 13 to 15 d
# Summary of the method: as §2
# [19] = Test C, postemergence, 125 g ai/ha
SMILES,"Ryegrass, Italian plant response rating (0 to 100 scale) ([1]; 31 g ai/ha)","Ryegrass, Italian plant response rating (0 to 100 scale) ([1]; 125 g ai/ha)",Barnyardgrass plant response rating (0 to 100 scale) ([2]; 31 g ai/ha),Barnyardgrass plant response rating (0 to 100 scale) ([2]; 125 g ai/ha),"Foxtail, Giant plant response rating (0 to 100 scale) ([3]; 31 g ai/ha)","Foxtail, Giant plant response rating (0 to 100 scale) ([3]; 125 g ai/ha)",Kochia plant response rating (0 to 100 scale) (kochia (Bassia scoparia) [4]; 31 g ai/ha),Kochia plant response rating (0 to 100 scale) (kochia (Bassia scoparia) [4]; 125 g ai/ha),Pigweed plant response rating (0 to 100 scale) ([5]; 31 g ai/ha),Pigweed plant response rating (0 to 100 scale) ([5]; 125 g ai/ha),Ragweed plant response rating (0 to 100 scale) ([6]; 31 g ai/ha),Ragweed plant response rating (0 to 100 scale) ([6]; 125 g ai/ha),"Ryegrass, Italian plant response rating (0 to 100 scale) ([7]; Postemergence, 31 g ai/ha)","Ryegrass, Italian plant response rating (0 to 100 scale) [7, 19]","Barnyardgrass plant response rating (0 to 100 scale) ([8]; Postemergence, 31 g ai/ha)","Barnyardgrass plant response rating (0 to 100 scale) [8, 19]","Blackgrass plant response rating (0 to 100 scale) ([9]; Postemergence, 31 g ai/ha)","Blackgrass plant response rating (0 to 100 scale) [9, 19]","Corn plant response rating (0 to 100 scale) (corn (Zea mays); Postemergence, 31 g ai/ha)",Corn plant response rating (0 to 100 scale) (corn (Zea mays); [19]),further results
CO/N=C(\c1ccc(F)c(Cl)c1)c1c(O)c(C)nn(C)c1=O [Compound 219],0,0,0,0,0,0,0,0,0,10,0,0,0,40,20,30,0,0,0,0,"Foxtail, Giant plant response rating (0 to 100 scale) ([10]; Postemergence, 31 g ai/ha): 0; Foxtail, Giant plant response rating (0 to 100 scale) [10, 19]: 0; Galium plant response rating (0 to 100 scale) ([11]; Postemergence, 31 g ai/ha): 50; Galium plant response rating (0 to 100 scale) [11, 19]: 60; Kochia plant response rating (0 to 100 scale) (kochia (Bassia scoparia) [12]; Postemergence, 31 g ai/ha): 10; Kochia plant response rating (0 to 100 scale) (kochia (Bassia scoparia) [12]; [19]): 50; Pigweed plant response rating (0 to 100 scale) ([13]; Postemergence, 31 g ai/ha): 20; Pigweed plant response rating (0 to 100 scale) [13, 19]: 40; Ragweed plant response rating (0 to 100 scale) ([14]; Postemergence, 31 g ai/ha): 0; Ragweed plant response rating (0 to 100 scale) [14, 19]: 10; Wheat plant response rating (0 to 100 scale) ([15]; Postemergence, 31 g ai/ha): 0; Wheat plant response rating (0 to 100 scale) [15, 19]: 0; Plant response rating, Barnyardgrass (Flood) [16]: 0; Plant response rating, Ducksalad (Flood) [17]: 0; Plant response rating, Rice (Flood) (rice (Oryza sativa)): 0; Plant response rating, Sedge, Umbrella (Flood) [18]: 0"
C#CCO/N=C(/c1c(O)c(C)nn(C)c1=O)c1cc(Cl)cc2ccccc12 [Compound 192],10,70,30,90,60,90,0,20,40,100,30,70,20,70,80,90,40,70,20,30,"Foxtail, Giant plant response rating (0 to 100 scale) ([10]; Postemergence, 31 g ai/ha): 70; Foxtail, Giant plant response rating (0 to 100 scale) [10, 19]: 80; Galium plant response rating (0 to 100 scale) ([11]; Postemergence, 31 g ai/ha): 80; Galium plant response rating (0 to 100 scale) [11, 19]: 100; Kochia plant response rating (0 to 100 scale) (kochia (Bassia scoparia) [12]; Postemergence, 31 g ai/ha): 30; Kochia plant response rating (0 to 100 scale) (kochia (Bassia scoparia) [12]; [19]): 60; Pigweed plant response rating (0 to 100 scale) ([13]; Postemergence, 31 g ai/ha): 50; Pigweed plant response rating (0 to 100 scale) [13, 19]: 80; Ragweed plant response rating (0 to 100 scale) ([14]; Postemergence, 31 g ai/ha): 80; Ragweed plant response rating (0 to 100 scale) [14, 19]: 90; Wheat plant response rating (0 to 100 scale) ([15]; Postemergence, 31 g ai/ha): 0; Wheat plant response rating (0 to 100 scale) [15, 19]: 50; Plant response rating, Barnyardgrass (Flood) [16]: 50; Plant response rating, Ducksalad (Flood) [17]: 70; Plant response rating, Rice (Flood) (rice (Oryza sativa)): 0; Plant response rating, Sedge, Umbrella (Flood) [18]: 70"
CO/N=C(/c1c(O)cnn(C)c1=O)c1ccc(F)c2ccccc12 [Compound 304],0,20,0,0,0,10,0,0,10,20,0,40,20,60,0,0,0,0,10,20,"Foxtail, Giant plant response rating (0 to 100 scale) ([10]; Postemergence, 31 g ai/ha): 0; Foxtail, Giant plant response rating (0 to 100 scale) [10, 19]: 20; Galium plant response rating (0 to 100 scale) ([11]; Postemergence, 31 g ai/ha): 10; Galium plant response rating (0 to 100 scale) [11, 19]: 80; Kochia plant response rating (0 to 100 scale) (kochia (Bassia scoparia) [12]; Postemergence, 31 g ai/ha): 30; Kochia plant response rating (0 to 100 scale) (kochia (Bassia scoparia) [12]; [19]): 50; Pigweed plant response rating (0 to 100 scale) ([13]; Postemergence, 31 g ai/ha): 50; Pigweed plant response rating (0 to 100 scale) [13, 19]: 80; Ragweed plant response rating (0 to 100 scale) ([14]; Postemergence, 31 g ai/ha): 0; Ragweed plant response rating (0 to 100 scale) [14, 19]: 10; Wheat plant response rating (0 to 100 scale) ([15]; Postemergence, 31 g ai/ha): 0; Wheat plant response rating (0 to 100 scale) [15, 19]: 0; Plant response rating, Barnyardgrass (Flood) [16]: 0; Plant response rating, Ducksalad (Flood) [17]: 0; Plant response rating, Rice (Flood) (rice (Oryza sativa)): 0; Plant response rating, Sedge, Umbrella (Flood) [18]: 0"
